Source: article PMC4729890 (Frontiers in Molecular Neuroscience, 2016)
pEC50: −log10 of the molar value.

Columns and labels:
ROS-GC1 [1] = target: T1, ROS-GC1 (Bos taurus, UniProt P55203, F570S); experiment: biochemical
T1 construct: gene GUCY2D

ROS-GC1 [2] = target: T2, ROS-GC1 (Bos taurus, UniProt P55203); experiment: biochemical
T2 construct: gene GUCY2D
T2 sequence (P55203 57-1110): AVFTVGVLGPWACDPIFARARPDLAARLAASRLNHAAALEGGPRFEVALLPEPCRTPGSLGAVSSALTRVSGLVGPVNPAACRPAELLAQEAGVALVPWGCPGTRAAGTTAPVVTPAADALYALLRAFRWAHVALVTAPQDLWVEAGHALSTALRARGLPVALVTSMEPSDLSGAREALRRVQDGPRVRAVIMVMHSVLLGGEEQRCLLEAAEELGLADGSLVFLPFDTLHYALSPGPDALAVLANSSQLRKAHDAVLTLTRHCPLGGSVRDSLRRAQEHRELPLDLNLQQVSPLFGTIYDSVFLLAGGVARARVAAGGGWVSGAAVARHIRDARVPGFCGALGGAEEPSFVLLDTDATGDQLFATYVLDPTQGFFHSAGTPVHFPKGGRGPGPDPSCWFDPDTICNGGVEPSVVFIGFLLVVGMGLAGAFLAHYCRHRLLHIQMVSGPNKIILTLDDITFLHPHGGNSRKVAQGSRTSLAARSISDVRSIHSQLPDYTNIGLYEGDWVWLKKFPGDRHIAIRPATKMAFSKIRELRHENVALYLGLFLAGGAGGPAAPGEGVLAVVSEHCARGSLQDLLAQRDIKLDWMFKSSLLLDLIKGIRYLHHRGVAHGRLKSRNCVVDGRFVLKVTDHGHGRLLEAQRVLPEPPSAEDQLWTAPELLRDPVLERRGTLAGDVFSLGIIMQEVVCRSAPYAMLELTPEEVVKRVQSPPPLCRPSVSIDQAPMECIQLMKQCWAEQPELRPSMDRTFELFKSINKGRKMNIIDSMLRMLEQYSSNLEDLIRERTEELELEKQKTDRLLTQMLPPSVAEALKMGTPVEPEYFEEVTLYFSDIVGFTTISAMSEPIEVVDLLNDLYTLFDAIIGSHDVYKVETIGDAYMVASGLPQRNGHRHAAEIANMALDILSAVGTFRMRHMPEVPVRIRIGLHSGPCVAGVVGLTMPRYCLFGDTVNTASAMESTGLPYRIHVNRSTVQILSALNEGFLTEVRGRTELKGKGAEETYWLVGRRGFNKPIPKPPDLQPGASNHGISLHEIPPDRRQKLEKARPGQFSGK

T1 sequence (P55203 57-1110 F570S): as the sequence (P55203 57-1110) above, with F514S counted along it

## O=C(O)O [bicarbonate]
ROS-GC1 [1]
  pEC50: 1.60
ROS-GC1 [2]
  pEC50: 1.80
